Measurements reported in patent US8785430B2, “Compound that can inhibit UBC13-UEV interactions, pharmaceutical compositions and therapeutic uses” (Consejo Superior de Investigaciones Cientificas, priority 2006, dated 2014).

Assays:
[1] = target: T1, binding of UEV1 to GST-UBC13 (Homo sapiens, UniProt P61088); test: Purified recombinant protein interaction assay, UEV1 binding to GST-UBC13 on glutathione-Sepharose; conditions: for UEV1 in the fraction which is eluted and not bound to GST-UBC13: 100 μM; for inhibition of the interaction of UEV1 with UBC13 at lower concentrations: much lower concentrations, of up to 10 nM
T1 construct: made in house; host or cells: Escherichia coli BL21
T1 sequence (P61088 1-152): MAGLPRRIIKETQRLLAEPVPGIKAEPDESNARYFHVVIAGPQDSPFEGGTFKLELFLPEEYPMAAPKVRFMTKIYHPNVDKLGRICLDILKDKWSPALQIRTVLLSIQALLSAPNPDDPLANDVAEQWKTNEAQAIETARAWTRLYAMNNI
Protocol: To determine the activity of these compounds in acellular assays, protein-protein interaction experiments were performed with recombinant proteins produced in Escherichia coli. To express UBC13 and UEV1, bacterial cells of the E. coli strain BL21 were transformed with plasmids pGEX-4T1-UBC13 or pGEX-4T3-UEV1, transformed colonies being selected by means of growth in plates with ampicillin (100 μg/mL). Individual colonies were transferred to 3 L of LB medium without antibiotics, being grown with stirring at 37° C. until the culture reached the exponential phase (OD600˜0.6), at which time the expression of the recombinant proteins was induced by means of adding isopropyl […] (IPTG, Sigma I-6758) at a concentration of 1 mM for 5 hours to the culture. The cultures were transferred to tubes, centrifuged and the cell pellets were resuspended in twice their volume of phosphate buffered saline (PBS) at pH 7.4 and were broken in a Cell Disruptor instrument (Constant Systems). The cell lysates were filtered through cellulose acetate filters with […] (Millipore SLHA033SS) and were applied to GSTrap FF columns (Amersham Biosciences 17-5131-01). In the case of UEV1, the protein bound specifically to the column was subjected to enzymatic digestion on the same column with 50 units of thrombin (Amersham Biosciences 27-0846-01) at 25° C. overnight. A HiTrapBenzamidine FF column (Amersham Biosciences 27-0846-01) was coupled to the previous column, such that the GST unit was trapped in the first column, and the thrombin in the second column. Then the UEV1 protein was eluted, without the GST portion, followed by a subsequent step of purification by means of gel filtration chromatography with a Superdex 75 column. The GST-UBC13 recombinant protein was expressed as indicated above, being purified by means of affinity chromatography in GSTrap FF columns, followed by filtration chromatography in Superdex 75. The fractions corresponding to the purified proteins were concentrated by means of centrifugation in Centricon YM-10 columns (Millipore 4205), being stored at 4° C. until their use.
To determine the effects of compounds Ia and Ib on the interaction of UBC13 with UEV1, 2 μL of the GST-UBC13 chimeric recombinant protein, at a concentration of […] in a 50 mM Hepes buffer, 100 mM NaCl, 1 mM EDTA, 0.5 mM DTT at pH 7.6 were pre-incubated for 30 minutes at room temperature with the compounds Varubin, Ib or the cyclic control compound VIII-N6-2-1C at final concentrations of 10 nM, 100 nM, 1 μM, 10 μM or 100 μM. […]

[2] = system: transcriptional activity of NF-κB induced by TNFα; test: NF-κB luciferase reporter assay, stimulation by TNFα in HeLa cells; assay type: cell-based; conditions: TNFα 10 ng/mL; for inhibition of the stimulation of the transcriptional activity of NF-κB induced by TNFα: HeLa cells, different concentrations
Protocol: To determine the activity of compounds Ia and Ib on the stimulation of the NFκ-B activity by TNFα, assays for inducing luciferase activity (determined with the Dual-Luciferase Reporter Assay System kit, Promega, catalog number E1910) generated by expression of the firefly (Photinus pyralis) luciferase gene directed by a promoter containing three recognition sites for NFκ-B were performed. To that end, HeLa cells were co-transfected with plasmid pRL-TK, encoding the Renilla reniformis Luciferase and being a transfection efficiency control, and plasmid prLUC, a plasmid which allows determining the transcriptional activity of NF-κB, using Fugene (Roche) as a transfection vehicle. 100,000 cells were seeded in 6-well plates (Costar). On the following day, the transfection complex was formed with 0.5 μg of each plasmid and 3 μl of Fugene for 15 minutes. The complex was added to the cells in Optimem medium (InVitrogen), and after 5 hours it was changed to complete medium (Dulbecco's Modified Eagle's Medium with 10% fetal bovine serum, 2 mM of glutamine, supplemented with penicillin and streptomycin), to which the compound Varubin (Ia) or Ib at different concentrations was added or not. On the following day, the cells were incubated with TNFα (10 ng/mL) for 4 hours, after which they were washed with phosphate buffered saline (PBS) and lysated with 250 μL of lysis buffer, following the manufacturer's (Promega) indications. 100 μL of luciferase reagent (LARII) were added to the lysate to measure the firefly luciferase activity, after which the reaction was stopped with 100 μL of stop buffer with Renilla reniformis luciferase substrate, this second activity being determined at that time. The firefly luciferase activity was standardized in relation to the Renilla luciferase activity. The values corresponding to cells transfected but not stimulated with TNFα were used as standardizers for the remaining experimental values. […]

Structure (SMILES)	UEV1 in the fraction which is eluted and not bound to GST-UBC13 [1]	inhibition of the interaction of UEV1 with UBC13 at lower concentrations [1]	inhibition of the stimulation of the transcriptional activity of NF-κB induced by TNFα [2]	inhibition at 100 µM ([2]; Homo sapiens, HeLa cells pre-incubated at 100 μM, read-out: inhibition of the activation of NF-κB by TNFα) [%]
NC(=O)CN(CCc1ccccn1)C(=O)C1CC(=O)N(CCc2ccc(F)cc2)CC(=O)N1CCc1ccc(F)cc1 (stereo not shown) [Ia, N-aminocarbamoylmethyl-N-(2′-(2″pyridyl)ethyl)-1,4-bis[2′-(4″-fluorophenyl)ethyl]-3,7-dioxo-[1,4]diazepane-5-carboxamide]	up to 60%	efficient inhibition	inhibits in a dose-dependent manner	~50
NC(=O)CN(CCc1ccccn1)C(=O)CC1C(=O)N(CCc2ccc(F)cc2)CC(=O)N1CCc1ccc(F)cc1 (stereo not shown) [Ib, 1,4-bis[2′-(4″-fluorophenyl)ethyl]-2-[N-aminocarbonylmethyl-N-(2′-(2″-pyridyl)ethyl)-carbonylmethyl]piperazine-3,6-dione]	≤ 40%	efficient inhibition	inhibits in a dose-dependent manner	–
